Values of other authors in PMC4939794 (Biochemistry, 2015).

In the case of green fluorescent protein [GFP], the CRO maturation half-life (depending on the variant and the conditions) is listed as 19 to 83 min, the folding rates (multiphasic, three to five folding rates) is listed as 10 to 0.01 s^−1 and the unfolding half-life (water at neutral pH, standard temperature and pressure, estimated) is listed as “greater than 1 month”.
